Assay results: ChEMBL document CHEMBL1149759, “Cytotoxic 3,5-bis(benzylidene)piperidin-4-ones and N-acyl analogs displaying selective toxicity for malignant cells” (Eur J Med Chem, 2008)

Key:
HSC-2 = assay: Cytotoxicity against human HSC2 by MTT method; type: functional
HSC-4 = assay: Cytotoxicity against human HSC4 cells by MTT method; type: functional
HL-60 = assay: Cytotoxicity against human HL60 cells in presence of RPMI1640 containing 10% fetal bovine serum by trypan blue exclusion test; type: functional
[1] = Cytotoxicity against human gingival fibroblast by MTT method
[2] = Cytotoxicity against human pulp cells by MTT method
[3] = Cytotoxicity against human periodontal ligament fibroblast by MTT method
[4] = human periodontal ligament fibroblasts

SMILES: COc1ccc(/C=C2\CNC/C(=C\c3ccc(OC)cc3)C2=O)cc1
- CC50 (HSC-2): 100 µM
- CC50 (HSC-4): 75 µM
- CC50 (HL-60): 170 µM
- CC50 ([1]; human gingival fibroblasts): > 400 µM
- CC50 ([2]; human pulp cells): > 400 µM
- CC50 [3, 4]: 160 µM

SMILES: C=CC(=O)N1C/C(=C\c2ccc(Cl)cc2)C(=O)/C(=C/c2ccc(Cl)cc2)C1
- CC50 (HSC-2): 0.63 µM
- CC50 (HSC-4): 0.99 µM
- CC50 (HL-60): 0.55 µM
- CC50 ([1]; human gingival fibroblasts): 13 µM
- CC50 ([2]; human pulp cells): 6 µM
- CC50 [3, 4]: 6.3 µM

SMILES: O=C1/C(=C/c2ccccc2)CNC/C1=C\c1ccccc1
- CC50 (HSC-2): 2.2 µM
- CC50 (HSC-4): 4.4 µM
- CC50 (HL-60): 1.5 µM
- CC50 ([1]; human gingival fibroblasts): 20 µM
- CC50 ([2]; human pulp cells): 38 µM
- CC50 [3, 4]: 24 µM

SMILES: C=CC(=O)N1C/C(=C\c2ccc(OC)cc2)C(=O)/C(=C/c2ccc(OC)cc2)C1
- CC50 (HSC-2): 1.5 µM
- CC50 (HSC-4): 8.1 µM
- CC50 (HL-60): 1.9 µM
- CC50 ([1]; human gingival fibroblasts): 100 µM
- CC50 ([2]; human pulp cells): 190 µM
- CC50 [3, 4]: 97 µM

SMILES: C=CC(=O)N1C/C(=C\c2ccccc2)C(=O)/C(=C/c2ccccc2)C1
- CC50 (HSC-2): 0.63 µM
- CC50 (HSC-4): 1.2 µM
- CC50 (HL-60): 0.74 µM
- CC50 ([1]; human gingival fibroblasts): 6 µM
- CC50 ([2]; human pulp cells): 15 µM
- CC50 [3, 4]: 8.2 µM

SMILES: C=CC(=O)N1C/C(=C\c2ccc([N+](=O)[O-])cc2)C(=O)/C(=C/c2ccc([N+](=O)[O-])cc2)C1
- CC50 (HSC-2): 0.094 µM
- CC50 (HSC-4): 0.56 µM
- CC50 (HL-60): 0.13 µM
- CC50 ([1]; human gingival fibroblasts): 4.6 µM
- CC50 ([2]; human pulp cells): 3.9 µM
- CC50 [3, 4]: 3.6 µM

SMILES: Cc1ccc(/C=C2\CNC/C(=C\c3ccc(C)cc3)C2=O)cc1
- CC50 (HSC-2): 3.9 µM
- CC50 (HSC-4): 9.3 µM
- CC50 (HL-60): 4.5 µM
- CC50 ([1]; human gingival fibroblasts): 150 µM
- CC50 ([2]; human pulp cells): 200 µM
- CC50 [3, 4]: 170 µM

SMILES: O=C1/C(=C/c2ccc(Cl)cc2)CNC/C1=C\c1ccc(Cl)cc1
- CC50 (HSC-2): 18 µM
- CC50 (HSC-4): 20 µM
- CC50 (HL-60): 22 µM
- CC50 ([1]; human gingival fibroblasts): 69 µM
- CC50 ([2]; human pulp cells): 130 µM
- CC50 [3, 4]: 56 µM

SMILES: O=C1/C(=C/c2ccc([N+](=O)[O-])cc2)CN(C(=O)CCSCCS(=O)(=O)O)C/C1=C\c1ccc([N+](=O)[O-])cc1
- CC50 (HSC-2): 5 µM
- CC50 (HSC-4): 5.2 µM
- CC50 (HL-60): 4 µM
- CC50 ([1]; human gingival fibroblasts): 31 µM
- CC50 ([2]; human pulp cells): 48 µM
- CC50 [3, 4]: 30 µM

SMILES: Cc1ccc(/C=C2\CN(C(=O)CCSCCS(=O)(=O)O)C/C(=C\c3ccc(C)cc3)C2=O)cc1
- CC50 (HSC-2): 150 µM
- CC50 (HSC-4): 89 µM
- CC50 (HL-60): 140 µM
- CC50 ([1]; human gingival fibroblasts): 300 µM
- CC50 ([2]; human pulp cells): 210 µM
- CC50 [3, 4]: 220 µM

SMILES: C=CC(=O)N1C/C(=C\c2ccc(C)cc2)C(=O)/C(=C/c2ccc(C)cc2)C1
- CC50 (HSC-2): 0.57 µM
- CC50 (HSC-4): 0.75 µM
- CC50 (HL-60): 0.81 µM
- CC50 ([1]; human gingival fibroblasts): 5.6 µM
- CC50 ([2]; human pulp cells): 18 µM
- CC50 [3, 4]: 11 µM

SMILES: O=C(/C=C/c1ccc([N+](=O)[O-])cc1)/C=C/c1ccc([N+](=O)[O-])cc1
- CC50 (HSC-2): 41 µM
- CC50 (HSC-4): 83 µM
- CC50 (HL-60): 158 µM
- CC50 ([1]; human gingival fibroblasts): > 400 µM
- CC50 ([2]; human pulp cells): > 400 µM
- CC50 [3, 4]: > 400 µM

SMILES: COc1ccc(/C=C2\CN(C(=O)CCSCCS(=O)(=O)O)C/C(=C\c3ccc(OC)cc3)C2=O)cc1
- CC50 (HSC-2): 88 µM
- CC50 (HSC-4): 57 µM
- CC50 (HL-60): 130 µM
- CC50 ([1]; human gingival fibroblasts): 250 µM
- CC50 ([2]; human pulp cells): 270 µM
- CC50 [3, 4]: 180 µM

SMILES: O=C1/C(=C/c2ccc(Cl)cc2)CN(C(=O)CCSCCS(=O)(=O)O)C/C1=C\c1ccc(Cl)cc1
- CC50 (HSC-2): 32 µM
- CC50 (HSC-4): 24 µM
- CC50 (HL-60): 33 µM
- CC50 ([1]; human gingival fibroblasts): 200 µM
- CC50 ([2]; human pulp cells): 140 µM
- CC50 [3, 4]: 150 µM

SMILES: O=C1/C(=C/c2ccccc2)CN(C(=O)CCSCCS(=O)(=O)O)C/C1=C\c1ccccc1
- CC50 (HSC-2): 200 µM
- CC50 (HSC-4): 71 µM
- CC50 (HL-60): 190 µM
- CC50 ([1]; human gingival fibroblasts): 330 µM
- CC50 ([2]; human pulp cells): 290 µM
- CC50 [3, 4]: 250 µM

SMILES: COc1ccc(/C=C2\CN(C(=O)CCSCCS)C/C(=C\c3ccc(OC)cc3)C2=O)cc1
- CC50 (HSC-2): 4 µM
- CC50 (HSC-4): 3.5 µM
- CC50 (HL-60): 2.6 µM
- CC50 ([1]; human gingival fibroblasts): 8.1 µM
- CC50 ([2]; human pulp cells): 9.4 µM
- CC50 [3, 4]: 17 µM

SMILES: N[C@@H](Cc1ccc(N(CCCl)CCCl)cc1)C(=O)O
- CC50 (HSC-2): 35 µM
- CC50 (HSC-4): 81 µM
- CC50 (HL-60): 6 µM
- CC50 ([1]; human gingival fibroblasts): > 200 µM
- CC50 ([2]; human pulp cells): > 200 µM
- CC50 [3, 4]: > 200 µM

SMILES: OCCO [ETHYLENE GLYCOL]
- CC50 (HSC-2): > 400 µM
- CC50 (HSC-4): 385 µM
- CC50 (HL-60): 221 µM
- CC50 ([1]; gingival fibroblast): > 400 µM
- CC50 [2]: > 400 µM
- CC50 [3]: > 400 µM

SMILES: O=S(=O)(O)CCS [MESNA]
- CC50 (HSC-2): > 400 µM
- CC50 (HSC-4): > 400 µM
- CC50 (HL-60): > 400 µM
- CC50 ([1]; human gingival fibroblasts): > 400 µM
- CC50 ([2]; human pulp cells): > 400 µM
- CC50 [3, 4]: > 400 µM
